Test results: PMC11044151, “Development of Half-Sandwich Ru, Os, Rh, and Ir Complexes Bearing the Pyridine-2-ylmethanimine Bidentate Ligand Derived from 7-Chloroquinazolin-4(3H)-one with Enhanced Antiproliferative Activity” (ACS Omega, 2024)

Legend:
[1] = test system: A549; assay: Neutral red uptake antiproliferative assay, A549
Description: (§1) To assess the impact of conjugating half-sandwich complexes with amines 1 via an imine-pyridine ligand on biological activity, we examined the antiproliferative potential of (R)- and (S)-1 and organometallic conjugates 3a–d and 4a–d in selected human cancer cell lines: alveolar basal epithelial cell adenocarcinoma (A549), colorectal adenocarcinomas (Colo205 and SW620), colorectal carcinoma (HCT116), hepatocellular carcinoma (HepG2), and breast adenocarcinoma (MCF7). The choice of cell lines was dictated by results of previously published clinical trials on ispinesib.[49],[50]
(§2) Cell lines used in this study were purchased from the American Type Culture Collection via LGC Standards. Human normal lung fibroblasts (MRC-5), alveolar basal epithelial cell adenocarcinoma (A549), colorectal adenocarcinoma (Colo205), hepatocellular carcinoma (HepG2), breast adenocarcinoma (MCF7), and colorectal adenocarcinoma (SW620) and its MDR variants[55] were cultured in standard conditions (37 °C, 5% CO2, 100% relative humidity) in high glucose DMEM medium supplemented with GlutaMax, HEPES (ThermoFisher Scientific) and 10% fetal bovine serum (EURx, Poland). All cell lines were tested for Mycoplasma contamination using a MycoProbe mycoplasma detection kit (R&D System).
(§3) For this purpose, neutral red uptake assay was performed. 10^4 of cells were seeded per well of a 96-well plate and left overnight to allow cells to attach to the surface. Then, the cells were exposed to a desired concentration of tested compounds. Stock solutions were prepared in DMSO and were used immediately after preparation. The final concentration of DMSO was constant and nontoxic (0.1% v/v). After 70 h of culture, neutral red was added to the final concentration of 1 mM. After 2 h of incubation with the dye, the medium was aspirated and cells were washed with ice-cold PBS. The dye was released using 100 μL of the solubilizer (1% acetic acid in 50% ethanol) on an orbital shaker (10 min). The absorbance at 540 nm was measured using an EnVision multilabel plate reader (PerkinElmer). […] The IC90 and IC50 parameters were calculated using GraphPad Prism v9 software using the five-parameter nonlinear logistic regression model.

[2] = test system: HCT116; assay: cells
Description: as §1, §3

[3] = test system: Colo205; assay: cells
Description: as §1, §2, §3

[4] = test system: HepG2; assay: cells
Description: as §1, §2, §3

[5] = test system: MCF7; assay: cells
Description: as §1, §2, §3

[6] = test system: SW620; assay: Neutral red uptake antiproliferative assay, SW620; assay type: cell-based, human
Description: as §1, §2, §3

[7] = test system: SW620C; assay: Neutral red uptake antiproliferative assay, MDR line SW620C; assay type: cell-based, human
Description: (§4) Next, we evaluated the cytotoxicity of the synthesized complexes toward the panel of six multidrug-resistant (MDR) cell lines derived from SW620 and characterized by the overexpression of various ABC proteins, namely, ABCG2 (SW620C and SW620Mito), ABCC1 (SW620M and SW620E), and ABCB1 (SW620D, SW620E, and SW620V) (Table 3, Figures S29 and S32). […] The activity of the complexes derived from the ligand (S)-2 is also considerably higher than that of the compounds containing the ligand (R)-2. The cytotoxicity of both rhodium 4c and iridium 4d complexes is higher than that of amine (S)-1. In the case of 4c, the increase in cytotoxicity is low, with the highest value of 3.7-fold for the SW620Mito line. […] Compound 4d also exerts a 2.1- and 2.6-fold higher cytotoxicity than […] against the SW620C and SW620D lines.
(§5) For this purpose, neutral red uptake assay was performed. […] The results were presented as a percentage of control.

[8] = test system: SW620D; assay: Neutral red uptake antiproliferative assay, MDR line SW620D; assay type: cell-based, human
Description: as §4, §5

[9] = test system: SW620E; assay: Neutral red uptake antiproliferative assay, MDR line SW620E; assay type: cell-based, human
Description: as §4, §5

[10] = test system: SW620M; assay: Neutral red uptake antiproliferative assay, MDR line SW620M; assay type: cell-based, human
Description: as §4, §5

[11] = test system: SW620V; assay: Neutral red uptake antiproliferative assay, MDR line SW620V; assay type: cell-based, human
Description: as §4, §5

[12] = test system: SW620Mito; assay: Neutral red uptake antiproliferative assay, MDR line SW620Mito; assay type: cell-based, human
Description: as §4, §5

[13] = test system: SW620 cells; assay: Cell cycle distribution by flow cytometry, SW620; assay type: cell-based, human; settings: concentration equal to IC75 of (S)-1 / (R)-1, mean ± SEM, n = 3
Protocol: Ispinesib leads to the formation of monopolar mitotic spindles and a blockade of chromosome segregation in cancer cells. Using flow cytometry, we assessed the cell cycle distribution in the SW620 and SW620E cells exposed to the studied compounds for 24 and 48 h. […] Both complexes, 3c and 3d, decrease the percentage of cells in the G1/G0 phase and increase the percentage in the S and G2/M phases. […] Furthermore, prolonged exposure to the compounds increases the percentage of cells in the G2/M phase, with the most intensive effect observed for 3c and 3d.
SW620 and SW620E cells lines (vulnerable and resistant variants, respectively) were seeded in 6-well plates at a density of 10^5 cells per well. […] After 24 h, the cells were trypsinized and fixed with ice-cold 70% v/v ethanol. The cells were stained with 75 μM propidium iodide with 50 Kunitz units of RNase A in PBS for 30 min at 37 °C. All samples were analyzed using a LSRII flow cytometer (Becton Dickinson) at a PE channel ([…]). Cell cycle phase distribution was determined using a built-in cell cycle module (Watson pragmatic algorithm) by FlowJo 7.6.1 software.

[14] = test system: SW620 cells; assay: ROS generation, dihydrorhodamine 123 oxidation assay; assay type: cell-based, human; settings: SW620, 1 μM compound, 4 h, DHR123 with 10 μM verapamil; vs control or (R)- and (S)-1
Description: Metal complexes often induce reactive oxygen species (ROS) generation in cells,[51] which may increase their cytotoxic activity compared to purely organic molecules. To study the impact of the synthesized compounds on ROS production, we have measured the ROS generation in SW620 cells by the dihydrorhodamine 123 (DHR123) oxidation assay (Figure 9). However, there is no correlation between the antiproliferative potential and the ability of a compound to generate ROS.
Dihydrorhodamine 123 oxidation was used as an indicator of intracellular ROS production. For this purpose, SW620 cells were seeded in 6-well plates at a density of 10^5 cells per well. The cells were left overnight (time needed for them to attach to the surface). Then, 1 μM tested compounds were added along with 1 μM DHR123. Additionally, since DHR123 is a substrate of ABCB1 (which may interfere in this assay), 10 μM verapamil, an inhibitor of this protein, was added. The cells were cultured for an additional 4 h at 37 °C, and then the cells were harvested by trypsinization, resuspended in a complete medium, and analyzed using a LSRII flow cytometer (Becton Dickinson) in a FITC channel (530/30 nm). The results are presented as a percentage of control (median fluorescence in the presence of DMSO).

[15] = vs corresponding amine (R)-1 or (S)-1, 72 h
[16] = exposure time 72 h, n = 3, ABCG2-overexpressing MDR line
[17] = exposure time 72 h, n = 3, ABCB1-overexpressing MDR line

CC(C)[C@H](N=Cc1ccccn1)c1nc2cc(Cl)ccc2c(=O)n1Cc1ccccc1.Cc1ccc(C(C)C)cc1.F[P-](F)(F)(F)(F)F.[Cl-].[Ru+2] [Compound 4a, [(cym)Ru((S)-2)Cl]PF6]
IC50 ([1]; read-out: IC50 A549, exposure time 72 h, n = 3, 95% CI given): 3.25 µM
activity factor IC50(1)/IC50(3a–4d), A549 [1, 15]: (2.17)
IC50 ([2]; read-out: IC50 HCT116, exposure time 72 h, n = 3, 95% CI given): 3.76 µM
activity factor IC50(1)/IC50(3a–4d), HCT116 [2, 15]: (2.14)
increased cytotoxicity vs corresponding amine 1, Colo205 [3]: approximately 6 fold
IC50 ([3]; read-out: IC50 Colo205, exposure time 72 h, n = 3, 95% CI given): 0.939 µM
activity factor IC50(1)/IC50(3a–4d), Colo205 [3, 15]: (6.46)
IC50 ([4]; read-out: IC50 HepG2, exposure time 72 h, n = 3, 95% CI given): 1.89 µM
activity factor IC50(1)/IC50(3a–4d), HepG2 [4, 15]: (1.27)
increased cytotoxicity vs corresponding amine 1, MCF7 [5]: approximately 6 fold
IC50 ([5]; read-out: IC50 MCF7, exposure time 72 h, n = 3, 95% CI given): 0.634 µM
activity factor IC50(1)/IC50(3a–4d), MCF7 [5, 15]: (6.17)
IC50 ([6]; exposure time 72 h, n = 3, 95% CI given): 2.91 µM
activity factor IC50(1)/IC50(3a–4d), SW620 [6, 15]: (0.986)
IC50 [7, 16]: 4.36 µM
activity factor IC50(1)/IC50(3a–4d), SW620C [7, 15]: (0.764)
IC50 [8, 17]: 6.01 µM
activity factor IC50(1)/IC50(3a–4d), SW620D [8, 15]: (0.690)
IC50 ([9]; exposure time 72 h, n = 3, ABCC1- and ABCB1-overexpressing MDR line): 5.46 µM
activity factor IC50(1)/IC50(3a–4d), SW620E [9, 15]: (0.741)
IC50 ([10]; exposure time 72 h, n = 3, ABCC1-overexpressing MDR line): 3.24 µM
activity factor IC50(1)/IC50(3a–4d), SW620M [10, 15]: (1.07)
IC50 [11, 17]: 5.01 µM
activity factor IC50(1)/IC50(3a–4d), SW620V [11, 15]: (0.687)
IC50 [12, 16]: 3.68 µM
activity factor IC50(1)/IC50(3a–4d), SW620Mito [12, 15]: (1.06)
Cell cycle fraction G1, 24 h ([13]; SW620, 24 h): 52.8 ± 1.2%
Cell cycle fraction G2/M, 24 h ([13]; SW620, 24 h): 33.3 ± 1.0%
Cell cycle fraction S, 24 h ([13]; SW620, 24 h): 13.5 ± 0.4%
Cell cycle fraction G1, 48 h ([13]; SW620, 48 h): 46.8 ± 0.7%
Cell cycle fraction G2/M, 48 h ([13]; SW620, 48 h): 39.1 ± 0.3%
Cell cycle fraction S, 48 h ([13]; SW620, 48 h): 13.5 ± 0.8%
ROS generation (in words) [14]: increase the level of ROS
